Results from patent US8617524B2, “Depigmenting keratin materials utilizing dithiolane compounds” (L'Oreal, priority 2008, dated 2013).

Assays:
[1] = system: co-culture of keratinocytes and melanocytes; assay: Activity on constitutive melanogenesis (inhibition of melanin synthesis; thiouracil/leucine incorporation ratio); format: cell-based; conditions: for Maximum Activity: inhibitory activity on melanin synthesis, ratio of incorporation of thiouracil to leucine, relative to 100% of the control without test compound
Method: (§1) The modulatory effect of the compounds on constitutive melanogenesis was measured according to the method described in FR-A-2,734,825 and also in the article by Schmidt et al., Anal. Biochem., 235(2), 1996, pp. 113-118. This test is performed on a co-culture of keratinocytes and melanocytes.
For the test compounds, the inhibitory activity on melanin synthesis was determined, by estimating the ratio of incorporation of thiouracil to the incorporation of leucine, relative to 100% of the control (the control corresponds to the test performed without test compound).

[2] = system: co-culture of keratinocytes and melanocytes; assay: Cytotoxicity on a co-culture; format: cell-based
Method: as §1

In the case of `OC[C@H]1O[C@@H](Oc2ccc(O)cc2)[C@H](O)[C@@H](O)[C@@H]1O` [Arbutin], the “Maximum Activity” value [1] is reported as −44% and the “Cytotoxicity on a co-culture” value [2] is reported as “Non-cytotoxic”.
`CC1(C(N)=O)CSSC1` [Compound 2, 4-methyl-1,2-dithiolane-4-carboxamide] was tested, and the “depigmenting action compared with arbutin and kojic acid” value ([1]; conclusion in words from the table of Example 25) was “greater depigmenting action than arbutin and kojic acid”, the “Maximum Activity” value [1] was −76% and the “Cytotoxicity on a co-culture” value [2] was 100 µM.
`O=c1cc(CO)occ1O` [Kojic acid] was tested, and the “Maximum Activity” value [1] was −30% and the “Cytotoxicity on a co-culture” value [2] was 100 µM.
